Columns and labels:
Format in all cases: cell-based
[1] = molecular target: T1, TRPV3 (Mus musculus, UniProt Q8K424); assay: Calcium imaging of TRPV3+/+ and TRPV3−/− primary keratinocytes; design: endogenous in cells; host or cells: primary keratinocytes from TRPV3+/+ mouse pups (day 1-4); TRPV3-/- cells as control; settings: IA 500 μM
T1 sequence (Q8K424 1-791): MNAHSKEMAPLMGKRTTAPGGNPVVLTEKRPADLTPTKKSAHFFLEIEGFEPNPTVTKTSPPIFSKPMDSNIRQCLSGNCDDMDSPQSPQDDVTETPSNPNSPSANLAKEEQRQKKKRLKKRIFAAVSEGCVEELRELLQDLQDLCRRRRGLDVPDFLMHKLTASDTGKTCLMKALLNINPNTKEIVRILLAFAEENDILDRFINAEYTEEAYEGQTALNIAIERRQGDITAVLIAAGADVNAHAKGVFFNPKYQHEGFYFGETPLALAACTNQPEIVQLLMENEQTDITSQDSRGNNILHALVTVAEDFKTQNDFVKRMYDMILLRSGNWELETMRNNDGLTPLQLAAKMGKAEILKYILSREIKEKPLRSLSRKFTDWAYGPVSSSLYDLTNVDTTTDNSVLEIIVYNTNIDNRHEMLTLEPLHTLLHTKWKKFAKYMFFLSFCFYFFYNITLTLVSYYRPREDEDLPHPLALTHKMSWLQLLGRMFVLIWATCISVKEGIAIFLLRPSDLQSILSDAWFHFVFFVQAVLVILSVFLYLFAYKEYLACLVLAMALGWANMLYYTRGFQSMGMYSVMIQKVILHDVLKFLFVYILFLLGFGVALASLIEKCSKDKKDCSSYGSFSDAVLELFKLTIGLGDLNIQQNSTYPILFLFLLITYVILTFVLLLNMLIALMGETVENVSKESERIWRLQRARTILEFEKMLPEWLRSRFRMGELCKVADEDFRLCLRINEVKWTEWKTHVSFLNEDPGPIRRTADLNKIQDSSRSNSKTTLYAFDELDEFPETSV
Text: HEK293 cells were transiently transfected with a rat TRPV2 plasmid using lipofectamine reagent (Invitrogen, Carlsbad, Calif.) according to manufacturer's protocol. They were then maintained in Dulbecco's modified Eagle Medium/10% fetal calf serum supplemented with Penicillin, Streptomycin, and L-glutamine. Primary keratinocytes from TRPV3-deficient and TRPV3+/+ mouse pups (day 1-4) were harvested and cultured as described previously [Chung, M. K., Lee, H., Mizuno, A., Suzuki, M. & Caterina, M. J. TRPV3 and TRPV4 mediate warmth-evoked currents in primary mouse keratinocytes. J. Biol. Chem. 279, 21569-21575 (2004)].
Calcium imaging of TRPV3^+/+ and TRPV3^−/− keratinocytes. Primary keratinocytes from TRPV3-deficient and WT mouse pups (day 1-4) were harvested and cultured as described [Chung, M. K., Lee, H., Mizuno, A., Suzuki, M. & Caterina, M. J. TRPV3 and TRPV4 mediate warmth-evoked currents in primary mouse keratinocytes. J. Biol. Chem. 279, 21569-21575 (2004)].
Cells were plated on glass coverslips (10^5/cm^2) and incubated for 48-60 h, then loaded with fura-2 AM (20 μM, 0.04% pleuronic acid, 32° C. for 1 h) in imaging buffer containing (in mM): 130 NaCl, 2.5 CaCl2, 0.6 MgCl2, 10 HEPES, 1.2 NaHCO3, 10 glucose, pH 7.45. Ratiometric Ca^2+ imaging was performed as previously described [O'dell, D. K., Rimmerman, N., Pickens, S. R. & Walker J. M. Fatty acyl amides of endogenous tetrahydroisoquinolines are active at the recombinant human TRPV1 receptor. Bioorg. Med. Chem. 15, 6164-6169 (2007)]. Drug was added to the bath following a period of baseline recording. Calcium measurements were made from 30 randomly selected cells per coverslip.
Data analysis of calcium imaging data. Analysis of calcium imaging data was done using a non-linear regression curve fit (Graphpad 4 Prism, San Diego, Calif.). t tests and one way ANOVA were calculated using SPSS (Chicago, Ill.). […] Averaged drug responses over 30 randomly selected cells per coverslip were analyzed with two-tailed unpaired t tests.

[2] = tested on: cancer cells; assay: Cell proliferation test (MTT); settings: three days
Method: In each MTT assay every concentration of the cytotoxic substance was tested in five replicates in microplate wells. Assays with every cell line were carried out in two to three repeated experiments. The inhibitory effect of various compounds was calculated as percentage inhibition in comparison with the values obtained in untreated wells to which vehicle (ethanol 0.5%) was added.
Aliquots (200 μL) of suspensions of cancer cells were dispensed into wells of 96-well tissue culture plates at densities of 0.02×10^6 cells/well. Various concentrations of IA were introduced into the wells, and their efficacy was tested three days after initiation of the cultures, using the 3-(4,5-dimethylthiazol-2-yl)-2,5-diphenyltetrazolium bromide (MTT) assay. The principle of this assay is that cells which survive following exposure to various compounds can reduce MTT to a dark -colored formazan, while dead cells are incapable of doing so. In each MTT assay every concentration of the cytotoxic substance was tested in five replicates in microplate wells. Assays with every cell line were carried out in two to three repeated experiments. The inhibitory effect of various compounds was calculated as percentage inhibition in comparison with the values obtained in untreated wells to which vehicle (ethanol 0.5%) was added.

[3] = molecular target: T2, rat TRPV4 (Rattus norvegicus, UniProt Q9ERZ8); assay: Calcium imaging of TRPV4 transfected HEK293 cells; settings: IA 100 μM, compared to vehicle
T2 construct: expressed in transfected cells; host or cells: HEK293 cell line
T2 sequence (Q9ERZ8 whole entry): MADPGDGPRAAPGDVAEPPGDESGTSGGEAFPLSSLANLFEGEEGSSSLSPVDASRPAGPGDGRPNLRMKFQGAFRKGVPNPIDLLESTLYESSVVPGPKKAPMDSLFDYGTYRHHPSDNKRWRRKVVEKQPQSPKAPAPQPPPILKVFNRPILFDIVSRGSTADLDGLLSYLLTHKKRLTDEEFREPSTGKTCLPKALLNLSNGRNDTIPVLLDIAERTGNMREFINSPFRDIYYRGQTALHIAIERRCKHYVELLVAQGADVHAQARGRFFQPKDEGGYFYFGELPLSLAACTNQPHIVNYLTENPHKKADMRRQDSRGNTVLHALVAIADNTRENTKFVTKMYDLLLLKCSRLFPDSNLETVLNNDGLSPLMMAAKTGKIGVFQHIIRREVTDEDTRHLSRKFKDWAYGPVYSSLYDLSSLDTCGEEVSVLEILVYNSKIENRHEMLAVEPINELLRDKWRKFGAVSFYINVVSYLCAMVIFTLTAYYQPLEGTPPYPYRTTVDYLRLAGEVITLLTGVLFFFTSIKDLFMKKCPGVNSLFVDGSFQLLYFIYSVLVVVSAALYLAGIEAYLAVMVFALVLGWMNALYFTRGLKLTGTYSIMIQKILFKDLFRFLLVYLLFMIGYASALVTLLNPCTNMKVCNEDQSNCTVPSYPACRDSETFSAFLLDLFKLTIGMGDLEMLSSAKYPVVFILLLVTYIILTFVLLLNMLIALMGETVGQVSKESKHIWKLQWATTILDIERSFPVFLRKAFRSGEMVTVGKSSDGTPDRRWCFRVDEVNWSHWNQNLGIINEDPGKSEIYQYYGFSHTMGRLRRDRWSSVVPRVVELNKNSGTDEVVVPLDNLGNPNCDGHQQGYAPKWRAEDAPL
Method: All error bars indicate SEM; p values in all subfigures but c represent analysis with one-way ANOVA Bonferroni's post hoc.
TRPV3-YFP [O'dell, D. K., Rimmerman, N., Pickens, S. R. & Walker J. M. Fatty acyl amides of endogenous tetrahydroisoquinolines are active at the recombinant human TRPV1 receptor. Bioorg. Med. Chem. 15, 6164-6169 (2007)], TRPV4 and mock-transfected cell lines were cultured in DMEM 1× with L-glutamine (Mediatech, Inc. Herndon, Va.), containing 1% penicillin-streptomycin (Invitrogen, Carlsbad, Calif.) and 10% foetal bovine serum.
Calcium imaging of HEK 293 cells. TRPV1, TRPV3, and TRPV4 expressing HEK293 cells were plated 24-48 h before imaging in 96 well plates, loaded with 3 μM Fura-2 AM and imaged as previously described [O'dell, D. K., Rimmerman, N., Pickens, S. R. & Walker J. M. Fatty acyl amides of endogenous tetrahydroisoquinolines are active at the recombinant human TRPV1 receptor. Bioorg. Med. Chem. 15, 6164-6169 (2007)].

CC(=O)OC1CC/C(C)=C/CC/C(C)=C/CC2(C(C)C)CCC1(C)O2 (centres unmarked) [IA, incensole acetate]
calcium influx in primary keratinocytes from TRPV3−/− mice [1]: not from TRPV3 | calcium influx in primary keratinocytes from WT mice ([1]; camphor 10 mM): induced a calcium influx | proliferation of cells, other cell lines (FIG. 11B) [2]: no effect | proliferation of cells, several cell lines (FIG. 11A) ([2]; hematopoetic cells): inhibited the proliferation of cells | calcium influx in TRPV4 transfected HEK293 cells [3]: very modest calcium influx
